What is called IC50 is the midpoint of a concentration-inhibition curve. A word on the IC90: it is the point of the concentration-response curve where the effect stands at 90%.

The nature of series [1]: Pharmacokinetics in mice (intravenous and oral). It counts as in vivo. The following applies: in words.
Series [2] deals with T. cruzi isolates. The series is described as follows: In vitro potency of AN14353 for a range of T. cruzi isolates of different genetic lineages (DTUs). It counts as cell-based, Trypanosoma cruzi. Here is the method: The in vitro anti-T. cruzi amastiogote activity assay was performed and optimized based on the protocol described previously (Canavaci, et al., PLoS neglected tropical diseases 4, e740 (2010)). The change in tdTomato fluorescence intensity was determined as a measurement of growth over 72 hours of culture. For assaying drug effects on extracellular amastigotes, trypomastigotes were collected from infected Vero cell cultures and converted in acidic media as previously described (Tomlinson, et al., Parasitology 110 (Pt 5), 547-554 (1995)). Amastigotes (50,000/well) were incubated with 2-fold serial dilutions of compounds for 48 hours. The ATP production was used as an indication of growth in this case, and was measured by ATPlite Luminescence ATP Detection Assay System (PerkinElmer). Both fluorescence and luminescence were read using a BioTek Synergy Hybrid Multi-Mode reader equipped with the software Gene5 v 2.0 (BioTek). The dose-response curve was generated by […] analysis with GraphPad Prism v9.4.0 (GraphPad Software). IC50 was determined as the drug concentration that was required to inhibit 50% of growth compared to that of parasites with no drug exposure. […]

On to `Cc1c(C(=O)N[C@H](C(=O)OCc2ccc(F)c(F)c2)C(C)C)ccc2c1B(O)OC2` [AN14353], for which the “absorption (dose proportionality of exposure in vivo)” value in series [1] is given as “solubility-limited absorption”. In addition, in series [2] (in words), the “in vitro potency for a range of T. cruzi isolates” value was “high in vitro potency”. Besides, the IC50 in series [2] (strain 20290, DTU TcI) was 3 nM; in series [2] (strain 20392, DTU TcIV), 5 nM; in series [2] (strain ARC0704, DTU TcI) it was 3 nM; in series [2] (strain CL, DTU TcVI), 6 nM; in series [2] (strain Colombiana, DTU TcI), 7 nM; in series [2] (strain M5631, DTU TcIII) it was 1 nM. Moreover, the IC50 in series [2] (strain Montalvania, DTU TcI) was determined as 1 nM; in series [2] (strain Tul8, DTU TcII), 1 nM. For the same molecule, the IC90 in series [2] (strain 20290, DTU TcI) stood at 5 nM; in series [2] (strain 20392, DTU TcIV), 10 nM; in series [2] (strain ARC0704, DTU TcI) it was 7 nM; in series [2] (strain CL, DTU TcVI), 18 nM; in series [2] (strain Colombiana, DTU TcI) it was 10 nM; in series [2] (strain M5631, DTU TcIII) it was 3 nM. Further, the IC90 in series [2] (strain Montalvania, DTU TcI) stood at 2 nM; in series [2] (strain Tul8, DTU TcII) it was 2 nM.
